Laboratory results as given in publication PMC10004090, “Novel Arylsulfonylhydrazones as Breast Anticancer Agents Discovered by Quantitative Structure-Activity Relationships” (Molecules, 2023).
Read-outs that look alike come from different tables or passages of the source.

Key:
MCF-7 [1] = settings: ligand efficiency LE = pIC50/N; training set 3a–o and cisplatin; cited from earlier work
MCF-7 [2] = settings: ligand efficiency LE = pIC50/N; training set 5a–k and doxorubicin; cited from earlier work
MDA-MB-468 = settings: ligand efficiency LE = pIC50/N; training set 5a–k and doxorubicin; cited from earlier work
MCF-7 [3] = test: MTT cytotoxicity test on MCF-7 cell line; type: cell-based, human; settings: for IC50: MTT, 72 h; for MCF-7 SI: selectivity index = IC50 on Neuro-2a/IC50 on MCF-7
Procedure: (§1) The anticancer activity of the novel arylsulfonylhydrazones was tested on two BC cell lines: MCF-7 and MDA-MB-231. The cell line MCF-7 originates from human breast adenocarcinoma and expresses estrogen receptor alpha (ER-α), while the cell line MDA-MB-231 represents TNBC adenocarcinoma and lacks any receptor [40]. To test the cytotoxicity of the compounds on healthy cells, they were incubated within Neuro-2a cells, which are mouse neuroblasts isolated from brain tissue.
(§2) The in vitro antineoplastic activity of the newly synthesized compounds was evaluated against human BC cell lines of different molecular types: the triple negative MDA-MB-231 cell line and the ER/PR/Her2 positive variant MCF-7, as well as against mouse neuroblast cells, Neuro-2a. All cell lines were purchased from the German Collection of Microorganisms and Cell Cultures (DSMZ GmbH, Braunschweig, Germany) and cultivated according to supplier’s instructions. Cells were cultured in an RPMI 1640 growth medium supplemented with 10% fetal bovine serum (FBS) and 5% L-glutamine, and incubated under standard conditions of 37 °C and 5% humidified CO2 atmosphere.
(§3) The cytostatic activity of the experimental compounds was investigated using an established methodology for assessing cell viability known as the Mosmann MTT method. The assay is colorimetric and measures the activity of mitochondrial enzymes by reducing the yellow dye MTT (3-(4,5-dimethylthiazol-2-yl)-2,5-diphenyltetrazolium bromide) to violet formazan crystals. Exponential-phased cells were harvested and seeded (100 μL/well) in 96-well plates at 1.5 × 10^5 density and incubated for 24 h. Cell cultures were treated and exposed to various concentrations (200–6.25 μM) of the tested compounds for 72 h, following which cell survival was quantified as percentage (%) relative to untreated control (100% cell viability).
(§4) Experimental data were processed using nonlinear regression analysis in the GraphPad Prism® software program. Semi-logarithmic “dose-response” curves were plotted and half-inhibitory concentrations (IC50) of the screened compounds were calculated for each of the tested tumor cell lines.

MDA-MB-231 = test: MTT cytotoxicity test on MDA-MB-231 cell line; type: cell-based, human; settings: for IC50: MTT, 72 h; for MDA-MB-231 SI: selectivity index = IC50 on Neuro-2a/IC50 on MDA-MB-231; for LE MDA-MB-231 Exp: LE = pIC50/N from MTT IC50, 72 h
Procedure: as §1, §2, §3, §4

Neuro-2a = test: MTT cytotoxicity test on Neuro-2a cells (healthy-cell control); type: cell-based, mouse; settings: for IC50: MTT, 72 h, healthy cells
Procedure: as §1, §2, §3, §4

Cc1ccc(S(=O)(=O)N/N=C\c2cccc(Br)n2)cc1 [Compound 3m]
LE MCF-7 (MCF-7 [1]): 0.176

Cc1ccc(S(=O)(=O)N/N=C\c2ccc(F)c(Oc3ccccc3)c2)cc1 [Compound 3d]
LE MCF-7 (MCF-7 [1]): 0.121

COc1ccc(/C=N\NS(=O)(=O)c2ccc(C)cc2)cc1[N+](=O)[O-] [Compound 3g]
LE MCF-7 (MCF-7 [1]): 0.143

COc1cc(/C=N\NS(=O)(=O)c2ccc(C)cc2)ccc1F [Compound 3f]
LE MCF-7 (MCF-7 [1]): 0.207

O=S(=O)(N/N=C\c1cn(CCN2CCOCC2)c2ccccc12)c1ccc(F)cc1 [Compound 5d]
LE MCF-7 (MCF-7 [2]): 0.150
LE MDA-MB-468 (MDA-MB-468): 0.161

COc1ccc2[nH]cc(/C=N\NS(=O)(=O)c3ccccc3)c2c1 [Compound 1a, N’-[(Z)-(5-methoxy-1H-indol-3-yl)methylidene]benzenesulfonohydrazide]
IC50 (MCF-7 [3]; Homo sapiens, MCF7, 72 h): < 1 µM
IC50 (MCF-7 [3]): 0.6 ± 0.2 µM
IC50 (MDA-MB-231; Homo sapiens, MDA-MB-231, 72 h): 3.1 ± 0.7 µM
IC50 (Neuro-2a; Mus musculus, N2a): 5.2 ± 0.9 µM

CC(=O)n1cc(/C=N/NS(=O)(=O)c2ccc(C)cc2)c2ccccc21 [Compound 1d, N’-[(E)-(1-acetyl-1H-indol-3-yl)methylidene]-4-methylbenzenesulfonohydrazide]
IC50 (MCF-7 [3]; Homo sapiens, MCF7, 72 h): 1.8 ± 0.6 µM
MCF-7 SI (MCF-7 [3]): 46
IC50 (MDA-MB-231; Homo sapiens, MDA-MB-231, 72 h): 65.1 ± 6.1 µM
MDA-MB-231 SI (MDA-MB-231): 1.272
IC50 (Neuro-2a; Mus musculus, N2a): 82.8 ± 8.1 µM

Cc1ccc(S(=O)(=O)N/N=C\c2cc(-c3ccccc3)cs2)cc1 [Compound 3c]
LE MCF-7 (MCF-7 [1]): 0.189

O=S(=O)(N/N=C/c1c[nH]c2ccc(Cl)cc12)c1ccccc1 [Compound 1e, N’-[(E)-(5-chloro-1H-indol-3-yl)methylidene]benzenesulfonohydrazide]
IC50 (MCF-7 [3]; Homo sapiens, MCF7, 72 h): < 1 µM
IC50 (MCF-7 [3]): 0.5 ± 0.1 µM
MCF-7 SI (MCF-7 [3]): 13
IC50 (MDA-MB-231; Homo sapiens, MDA-MB-231, 72 h): < 1 µM
IC50 (MDA-MB-231): 0.9 ± 0.2 µM
IC50 (Neuro-2a; Mus musculus, N2a): 6.5 ± 1.1 µM

CC(=O)n1cc(/C=N/NS(=O)(=O)c2ccccc2)c2ccccc21 [Compound 1c, N’-[(E)-(1-acetyl-1H-indol-3-yl)methylidene]benzenesulfonohydrazide]
IC50 (MCF-7 [3]; Homo sapiens, MCF7, 72 h): < 1 µM
IC50 (MCF-7 [3]): 0.9 ± 0.4 µM
IC50 (MDA-MB-231; Homo sapiens, MDA-MB-231, 72 h): 19.2 ± 3.4 µM
IC50 (Neuro-2a; Mus musculus, N2a): 36.2 ± 4.3 µM
melting point: 209 to 210 °C

O=S(=O)(N/N=C\c1cn(CCN2CCOCC2)c2ccccc12)c1ccc(Cl)cc1 [Compound 5f]
LE MCF-7 (MCF-7 [2]): 0.163
LE MDA-MB-468 (MDA-MB-468): 0.170

Cc1ccc(S(=O)(=O)N/N=C\c2cc(Br)cs2)cc1 [Compound 3b]
LE MCF-7 (MCF-7 [1]): 0.203

Cc1ccc(S(=O)(=O)N/N=C\c2ccccc2OC(F)(F)F)cc1 [Compound 3o]
LE MCF-7 (MCF-7 [1]): 0.166

COc1cccc2c1C(=O)c1c(O)c3c(c(O)c1C2=O)C[C@@](O)(C(=O)CO)C[C@@H]3O[C@H]1C[C@H](N)[C@H](O)[C@H](C)O1 [Doxorubicin]
LE MCF-7 (MCF-7 [2]): 0.185
LE MDA-MB-468 (MDA-MB-468): 0.182

COc1ccc2[nH]cc(/C=N/NS(=O)(=O)c3ccc(C)cc3)c2c1 [Compound 1b, N’-[(E)-(5-methoxy-1H-indol-3-yl)methylidene]-4-methylbenzenesulfonohydrazide]
IC50 (MCF-7 [3]; Homo sapiens, MCF7, 72 h): < 1 µM
IC50 (MCF-7 [3]): 0.8 ± 0.3 µM
MCF-7 SI (MCF-7 [3]): 5.000
IC50 (MDA-MB-231; Homo sapiens, MDA-MB-231, 72 h): 8.5 ± 2.1 µM
IC50 (Neuro-2a; Mus musculus, N2a): 4 ± 0.4 µM
melting point: 201 to 202 °C

Cc1ccc(S(=O)(=O)N/N=C\c2ccc3c(c2)OC(F)(F)O3)cc1 [Compound 3a]
LE MCF-7 (MCF-7 [1]): 0.174

Cc1ccc(S(=O)(=O)N/N=C\c2c(C)cccc2Cl)cc1 [Compound 3l]
LE MCF-7 (MCF-7 [1]): 0.180

COc1ccc(/C=N/NS(=O)(=O)c2ccc(C)cc2)cc1OC [Compound 1g, N’-[(E)-(3,4-dimethoxyphenyl)methylidene]-4-methylbenzenesulfonohydrazide]
IC50 (MCF-7 [3]; Homo sapiens, MCF7): 56.1 ± 8.4 µM
MCF-7 SI (MCF-7 [3]): 2.415
IC50 (MDA-MB-231; Homo sapiens, MDA-MB-231): > 500 µM

Cc1ccc(S(=O)(=O)N/N=C\c2c[nH]nc2-c2ccccc2)cc1 [Compound 3h]
LE MCF-7 (MCF-7 [1]): 0.141

Cc1ccc(S(=O)(=O)N/N=C\c2cccc(C(F)(F)F)c2Cl)cc1 [Compound 3e]
LE MCF-7 (MCF-7 [1]): 0.148

COc1ccc(/C=N/NS(=O)(=O)c2ccccc2)cc1OC [Compound 1f, N’-[(E)-(3,4-dimethoxyphenyl)methylidene]benzenesulfonohydrazide]
IC50 (MCF-7 [3]; Homo sapiens, MCF7): 5.97 ± 2.1 µM
IC50 (MDA-MB-231; Homo sapiens, MDA-MB-231): 266 ± 19.7 µM
MDA-MB-231 SI (MDA-MB-231): 0.410

O=S(=O)(N/N=C\c1cn(CCN2CCOCC2)c2ccccc12)c1ccccc1 [Compound 5c]
LE MCF-7 (MCF-7 [2]): 0.143
LE MDA-MB-468 (MDA-MB-468): 0.149

Cc1ccc(S(=O)(=O)N/N=C\c2cn(CCN3CCOCC3)c3ccccc23)cc1 [Compound 5b]
LE MCF-7 (MCF-7 [2]): 0.140
LE MDA-MB-468 (MDA-MB-468): 0.146

O=[N+]([O-])c1ccc(S(=O)(=O)N/N=C\c2cn(CCN3CCOCC3)c3ccccc23)cc1 [Compound 5e]
LE MCF-7 (MCF-7 [2]): 0.128
LE MDA-MB-468 (MDA-MB-468): 0.138

N’-[(E)-(5-methoxy-1-methyl-1H-indol-3-yl)methylidene]benzenesulfonohydrazide [Compound 1i]
LE MCF-7 Exp (MCF-7 [3]; LE = pIC50/N from MTT IC50, 72 h): 0.158
IC50 (MCF-7 [3]): 165 ± 8.6 µM
MCF-7 SI (MCF-7 [3]): 0.818
LE MDA-MB-231 Exp (MDA-MB-231): 0.178
IC50 (MDA-MB-231): 54.8 ± 7.4 µM
MDA-MB-231 SI (MDA-MB-231): 2.462
Neuro-2a LE (Neuro-2a; LE = pIC50/N): 0.161
IC50 (Neuro-2a): 135 ± 10.9 µM

O=S(=O)(N/N=C/c1ccc(Cl)cc1)c1ccccc1 [Compound 1h, N’-[(E)-(4-chlorophenyl)methylidene]benzenesulfonohydrazide]
IC50 (MCF-7 [3]; Homo sapiens, MCF7): 157 ± 11.2 µM
MCF-7 SI (MCF-7 [3]): 0.747
IC50 (MDA-MB-231; Homo sapiens, MDA-MB-231): 63.1 ± 6.9 µM
MDA-MB-231 SI (MDA-MB-231): 1.861

Cc1ccc(S(=O)(=O)N/N=C\c2ccc(F)cc2C(F)(F)F)cc1 [Compound 3j]
LE MCF-7 (MCF-7 [1]): 0.148

Cc1ccc(S(=O)(=O)N/N=C\c2cccn2C)cc1 [Compound 3n]
LE MCF-7 (MCF-7 [1]): 0.207

COc1cccc(/C=N\NS(=O)(=O)c2ccc(C)cc2)c1Cl [Compound 3k]
LE MCF-7 (MCF-7 [1]): 0.197

COc1ccc(S(=O)(=O)N/N=C\c2cn(CCN3CCOCC3)c3ccccc23)cc1 [Compound 5a]
LE MCF-7 (MCF-7 [2]): 0.136
LE MDA-MB-468 (MDA-MB-468): 0.141

N.N.[Cl][Pt][Cl] [Cisplatin, reference compound]
IC50 (MCF-7 [3]): 50.3 ± 6.5 µM
LE MDA-MB-231 Exp (MDA-MB-231): 0.840
IC50 (MDA-MB-231): 63.4 ± 7.2 µM
LE MCF-7 (MCF-7 [1]): 0.931

COc1ccc(Br)cc1/C=N\NS(=O)(=O)c1ccc(C)cc1 [Compound 3i]
LE MCF-7 (MCF-7 [1]): 0.170

O=S(=O)(N/N=C\c1cn(CCN2CCOCC2)c2ccccc12)c1ccc2ccccc2c1 [Compound 5h]
LE MCF-7 (MCF-7 [2]): 0.116
LE MDA-MB-468 (MDA-MB-468): 0.110
